Source: ChEMBL document CHEMBL2311320, “A-ring modification of SCH 900229 and related chromene sulfone γ-secretase inhibitors” (Bioorg Med Chem Lett, 2013)

What was measured:
Format in all cases: cell-based, Homo sapiens
[1] = molecular target: Gamma-secretase; assay: Inhibition of gamma-secretase (unknown origin) expressed in HEK293 cells co-expressing […] mutant assessed as reduction of amyloid beta-42 production
[2] = molecular target: Gamma-secretase; assay: Inhibition of gamma-secretase (unknown origin) expressed in HEK293 cell membrane co-expressing […] mutant assessed as reduction of amyloid beta-40 production
[3] = molecular target: Gamma-secretase; assay: Inhibition of gamma-secretase (unknown origin) expressed in HEK293 cells co-expressing […] mutant assessed as reduction of amyloid beta-40 production

SMILES | IC50 [1] [nM] | IC50 [2] [nM] | IC50 [3] [nM]
O=C1C=CC(F)(F)C2=C1[C@]1(S(=O)(=O)c3ccc(C(F)(F)F)cc3)CCC[C@@H](CNS(=O)(=O)C(F)(F)F)[C@@H]1CO2 | 200 | 78 | 330
O=C1C=CC(F)(F)C2=C1[C@]1(S(=O)(=O)c3ccc(C(F)(F)F)cc3)CC[C@@H](NS(=O)(=O)C3CC3)C[C@@H]1CO2 | 110 | 6.8 | 280
CC[C@@H]1C[C@@H]2[C@@H](CC[C@@]3(S(=O)(=O)c4ccc(C(F)(F)F)cc4)C4=C(OC[C@@H]23)C(F)(F)C=CC4=O)NS1(=O)=O | 25 | 3.9 | 46
CS(=O)(=O)CC[C@@H]1OCC[C@@]2(S(=O)(=O)c3ccc(C(F)(F)F)cc3)c3c(F)ccc(F)c3OC[C@@H]12 | 4 | 15 | 11
CC[C@@H]1C[C@@H]2[C@@H](CC[C@@]3(S(=O)(=O)c4ccc(C(F)(F)F)cc4)c4c(F)ccc(F)c4OC[C@@H]23)NS1(=O)=O | 2 | 1.9 | 5
CS(=O)(=O)CC[C@@H]1OCC[C@@]2(S(=O)(=O)c3ccc(C#N)cc3)c3c(F)ccc(F)c3OC[C@@H]12 | 9 | 66 | 25
CS(=O)(=O)CC[C@@H]1OCC[C@@]2(S(=O)(=O)c3ccc(Cl)cc3)c3c(F)ccc(F)c3OC[C@@H]12 | 1 | 1.3 | 4
CC[C@@H]1C[C@@H]2[C@@H](CC[C@@]3(S(=O)(=O)c4ccc(C#N)cc4)C4=C(OC[C@@H]23)C(F)(F)C=CC4=O)NS1(=O)=O | 31 | 3.5 | 110
CS(=O)(=O)CC[C@@H]1OCC[C@@]2(S(=O)(=O)c3ccc(Cl)cc3)C3=C(OC[C@@H]12)C(F)(F)C=CC3=O | 11 | 1.2 | 26
CS(=O)(=O)CC[C@@H]1OCC[C@@]2(S(=O)(=O)c3ccc(C#N)cc3)C3=C(OC[C@@H]12)C(F)(F)C=CC3=O | 410 | 21 | 1600
CC[C@@H]1C[C@@H]2[C@@H](CC[C@@]3(S(=O)(=O)c4ccc(C#N)cc4)c4c(F)ccc(F)c4OC[C@@H]23)NS1(=O)=O | 2 | 4.7 | 4
O=S(=O)(NC[C@@H]1CC[C@@]2(S(=O)(=O)c3ccc(C(F)(F)F)cc3)c3c(F)ccc(F)c3OC[C@H]2C1)C1CC1 | 19 | 92 | 6.8
CS(=O)(=O)CC[C@@H]1OCC[C@@]2(S(=O)(=O)c3ccc(C(F)(F)F)cc3)C3=C(OC[C@@H]12)C(F)(F)C=CC3=O | 27 | 1.8 | 56
CS(=O)(=O)CC[C@@H]1CCC[C@@]2(S(=O)(=O)c3ccc(C(F)(F)F)cc3)c3c(F)ccc(F)c3OC[C@@H]12 | 21 | 43 | 63
CS(=O)(=O)CC[C@@H]1CCC[C@@]2(S(=O)(=O)c3ccc(C(F)(F)F)cc3)C3=C(OC[C@@H]12)C(F)(F)C=CC3=O | 49 | 1.9 | 130
O=S(=O)(NC[C@@H]1CCC[C@@]2(S(=O)(=O)c3ccc(C(F)(F)F)cc3)c3c(F)ccc(F)c3OC[C@@H]12)C(F)(F)F | 32 | 54 | 73
